The target of this assay is CFTR (Homo sapiens, UniProt P13569). Briefly: Membrane potential dye, Enteroid Assay A. The format is cell-based. The conditions noted are these: for Ent. A Max Activity: chloride transport as % of triple combination control (Enteroid Assay A); for EC50: human enteroid cells, 18-24 hours, acute 10 μM forskolin and 300 nM ivacaftor, read-out: Ent. A EC50. As for the experimental part: Base medium (ADF+++) consisted of Advanced DMEM/Ham's F12, 2 mM Glutamax, 10 mM HEPES, […] penicillin/streptomycin.
Sequence of CFTR (P13569 with tags, fused parts or gaps DEL508-508): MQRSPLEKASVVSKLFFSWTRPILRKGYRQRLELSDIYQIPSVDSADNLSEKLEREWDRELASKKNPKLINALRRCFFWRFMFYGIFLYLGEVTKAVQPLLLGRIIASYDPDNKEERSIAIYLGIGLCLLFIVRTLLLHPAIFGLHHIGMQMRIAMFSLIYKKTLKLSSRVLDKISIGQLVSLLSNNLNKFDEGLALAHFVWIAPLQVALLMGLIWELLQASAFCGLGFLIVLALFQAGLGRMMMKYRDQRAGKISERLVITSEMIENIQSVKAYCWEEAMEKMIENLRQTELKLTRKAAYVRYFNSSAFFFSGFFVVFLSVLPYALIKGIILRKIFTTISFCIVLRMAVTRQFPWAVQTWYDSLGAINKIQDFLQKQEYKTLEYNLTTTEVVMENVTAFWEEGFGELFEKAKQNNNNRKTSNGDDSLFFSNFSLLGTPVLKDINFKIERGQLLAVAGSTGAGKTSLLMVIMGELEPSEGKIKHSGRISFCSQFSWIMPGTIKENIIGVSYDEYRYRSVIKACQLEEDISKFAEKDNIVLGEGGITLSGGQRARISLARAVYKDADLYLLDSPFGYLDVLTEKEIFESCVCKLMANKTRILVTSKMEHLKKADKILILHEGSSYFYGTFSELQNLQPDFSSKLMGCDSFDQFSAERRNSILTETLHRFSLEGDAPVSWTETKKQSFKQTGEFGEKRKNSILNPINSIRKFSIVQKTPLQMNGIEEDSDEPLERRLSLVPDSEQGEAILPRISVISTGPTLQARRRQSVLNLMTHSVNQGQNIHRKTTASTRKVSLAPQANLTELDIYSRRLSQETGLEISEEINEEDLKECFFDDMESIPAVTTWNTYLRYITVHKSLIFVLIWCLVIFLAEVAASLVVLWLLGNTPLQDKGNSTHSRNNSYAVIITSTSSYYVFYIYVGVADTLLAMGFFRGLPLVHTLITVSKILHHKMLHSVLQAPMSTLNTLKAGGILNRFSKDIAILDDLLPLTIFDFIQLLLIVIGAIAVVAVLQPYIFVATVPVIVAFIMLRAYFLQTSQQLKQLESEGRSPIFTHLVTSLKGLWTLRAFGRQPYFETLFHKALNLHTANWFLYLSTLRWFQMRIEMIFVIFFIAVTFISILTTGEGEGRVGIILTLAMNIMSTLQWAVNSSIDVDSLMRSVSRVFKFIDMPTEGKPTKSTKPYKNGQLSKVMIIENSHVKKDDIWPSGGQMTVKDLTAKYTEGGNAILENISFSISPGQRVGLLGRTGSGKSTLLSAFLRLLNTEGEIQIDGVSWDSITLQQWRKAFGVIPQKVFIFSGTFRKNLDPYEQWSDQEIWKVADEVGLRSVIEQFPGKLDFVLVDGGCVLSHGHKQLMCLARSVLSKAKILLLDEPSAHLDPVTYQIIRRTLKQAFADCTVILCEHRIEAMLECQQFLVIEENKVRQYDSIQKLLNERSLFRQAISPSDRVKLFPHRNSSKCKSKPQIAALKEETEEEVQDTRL
Intestinal enteroid maintenance medium (IEMM) consisted of ADF+++, 1× B27 supplement, 1× N2 supplement, 1.25 mM N-acetyl cysteine, 10 mM Nicotinamide, 50 ng/mL hEGF, 10 nM Gastrin, 1 μg/mL hR-spondin-1, 100 ng/mL hNoggin, TGF-b type 1 inhibitor A-83-01, 100 μg/mL Primocin, 10 μM P38 MAPK inhibitor SB202190.
Bath 1 Buffer consisted of 1 mM MgCl2, 160 mM NaCl, 4.5 mM KCl, 10 mM HEPES, 10 mM Glucose, 2 mM CaCl2).
Chloride Free Buffer consisted of 1 mM Magnesium Gluconate, 2 mM Calcium Gluconate, 4.5 mM Potassium Gluconate, 160 mM Sodium Gluconate, 10 mM HEPES, 10 mM Glucose.
BathI Dye Solution consisted of Bath 1 Buffer, 0.04% Pluronic F127, 20 μM Methyl Oxonol, 30 μM CaCCinh-A01, 30 μM Chicago Sky Blue.
Chloride Free Dye Solution consisted of Chloride Free Buffer, 0.04% Pluronic F127, 20 μM Methyl Oxonol, 30 μM CaCCinh-A01, 30 μM Chicago Sky Blue.
Chloride Free Dye Stimulation Solution consisted of Chloride Free Dye Solution, 10 μM forskolin, 100 μM IBMX, and 300 nM Compound III.
Human intestinal epithelial enteroid cells were obtained from the Hubrecht Institute for Developmental Biology and Stem Cell Research, Utrecht, The Netherlands and expanded in T-Flasks as previously described (Dekkers J F, Wiegerinck C L, de Jonge H R, Bronsveld I, Janssens H M, de Winter-de Groot K M, Brandsma A M, de Jong N W M, Bijvelds M J C, Scholte B J, Nieuwenhuis E E S, van den Brink S, Clevers H, van der Ent C K, Middendorp S and M Beekman J M. A functional CFTR assay using primary cystic fibrosis intestinal organoids. Nat Med. 2013 July;19(7):939-45.).
3. Enteroid Cell Harvesting and Seeding
Cells were recovered in cell recovery solution, collected by centrifugation at 650 rpm for 5 min at 4° C., resuspended in TrypLE and incubated for 5 min at 37° C. Cells were then collected by centrifugation at 650 rpm for 5 min at 4° C. and resuspended in IEMM containing 10 μM ROCK inhibitor (RI). The cell suspension was passed through a 40 μm cell strainer and resuspended at 1×10^6 cells/mL in IEMM containing 10 μM RI. Cells were seeded at 5000 cells/well into multi-well plates and incubated for overnight at 37° C., 95% humidity and 5% CO2 prior to assay.
4. Membrane Potential Dye, Enteroid Assay A
Enteroid cells were incubated with test compound in IEMM for 18-24 hours at 37° C., 95% humidity and 5% CO2. […] Briefly, cells were washed 5 times in Bath 1 Buffer. Bath 1 Dye Solution was added, and the cells were incubated for 25 min at room temperature. Following dye incubation, cells were washed 3 times in Chloride Free Dye Solution. Chloride transport was initiated by addition of Chloride Free Dye Stimulation Solution and the fluorescence signal was read for 15 min. […] Chloride transport was then expressed as a percentage of the chloride transport following treatment with 3 μM N-[(6-amino-2-pyridyl)sulfonyl]-6-(3-fluoro-5-isobutoxy-phenyl)-2-[(4S)-2,2,4-trimethylpyrrolidin-1-yl]pyridine-3-carboxamide, 3 μM (R)-1-(2,2-difluorobenzo[d][1,3]dioxol-5-yl)-N-(1-(2,3-dihydroxypropyl)-6-fluoro-2-(1-hydroxy-2-methylpropan-2-yl)-1H-indol-5-yl)cyclopropanecarboxamide and 300 nM acute N-[2,4-bis(1,1-dimethylethyl)-5-hydroxyphenyl]-1,4-dihydro-4-oxoquinoline-3-carboxamide triple combination control (% Activity).

Like-named read-outs stand apart in the source and are kept apart here. A value given as a limit tells only on which side of the number the result lay.

Regarding `Cc1cccc(C)c1-c1cc2nc(n1)NS(=O)(=O)c1cccc(c1)C(=O)N(Cc1ccc(C3=CCN(C)CC3)cc1)[C@H](CC(C)C)CO2` [Compound 86, (11R)-6-(2,6-Dimethylphenyl)-11-isobutyl-12-[[4-(1-methyl-3,6-dihydro-2H-pyridin-4-yl)phenyl]methyl]-2,2-dioxo-9-oxa-2λ^6-thia-3,5,12,19-tetrazatricyclo[12.3.1.14,8]nonadeca-1(18),4(19),5,7,14,16-hexaen-13-one], under “Table 6”, the “Ent. A Max Activity” value is reported as “+++ (+++ is >60%)” and the 50% effective concentration (EC50) (in general, the concentration needed to bring the measured effect to its halfway point) is less than 1 µM.
For `Cc1cccc(C)c1-c1cc2nc(n1)NS(=O)(=O)c1cccc(c1)C(=O)N(Cc1ccc(C3CCN(C)CC3)cc1)[C@H](CC(C)C)CO2` [Compound 87, (11R)-6-(2,6-Dimethylphenyl)-11-isobutyl-12-[[4-(1-methyl-4-piperidyl)phenyl]methyl]-2,2-dioxo-9-oxa-2λ^6-thia-3,5,12,19-tetrazatricyclo[12.3.1.14,8]nonadeca-1(18),4(19),5,7,14,16-hexaen-13-one], under “Table 6”, the “Ent. A Max Activity” value is listed as “+++ (+++ is >60%)” and the EC50 is less than 1 µM.
Taken in the same sequence, the figures for `Cc1cccc(C)c1-c1cc2nc(n1)NS(=O)(=O)c1cccc(c1)C(=O)N(Cc1ccc(P(C)(C)=O)cc1)[C@H](CC(C)C)CO2` [Compound 88, (11R)-6-(2,6-Dimethylphenyl)-12-[(4-dimethylphosphorylphenyl)methyl]-11-isobutyl-2,2-dioxo-9-oxa-2λ^6-thia-3,5,12,19-tetrazatricyclo[12.3.1.14,8]nonadeca-1(18),4(19),5,7,14,16-hexaen-13-one] were “++ (++ is 30-60%)” and 1 to 3 µM.
For the compound `Cc1cccc(C)c1-c1cc2nc(n1)NS(=O)(=O)c1cccc(c1)C(=O)N(CC1CC3(CCN(C)CC3)C1)[C@H](CC(C)C)CO2` [Compound 89, (11R)-6-(2,6-Dimethylphenyl)-11-isobutyl-12-[(7-methyl-7-azaspiro[3.5]nonan-2-yl)methyl]-2,2-dioxo-9-oxa-2λ^6-thia-3,5,12,19-tetrazatricyclo[12.3.1.14,8]nonadeca-1(18),4(19),5,7,14,16-hexaen-13-one], for the setting “Table 7”, the “Ent. A Max Activity” value is recorded as “+++ (+++ is >60%)” and the EC50 is less than 1 µM.
Taken in the same sequence, the figures for `CC(=O)N1CCC2(CC1)CC(CN1C(=O)c3cccc(c3)S(=O)(=O)Nc3nc(cc(-c4c(C)cccc4C)n3)OC[C@H]1CC(C)C)C2` [Compound 90, (11R)-12-[(7-Acetyl-7-azaspiro[3.5]nonan-2-yl)methyl]-6-(2,6-dimethylphenyl)-11-isobutyl-2,2-dioxo-9-oxa-2λ^6-thia-3,5,12,19-tetrazatricyclo[12.3.1.14,8]nonadeca-1(18),4(19),5,7,14,16-hexaen-13-one] were “+++ (+++ is >60%)” and less than 1 µM.
For the compound `CNC(=O)c1ccc(CN2C(=O)c3cccc(c3)S(=O)(=O)Nc3nc(cc(-c4c(C)cccc4C)n3)OC[C@H]2CC(C)C)cn1` [Compound 93, 5-{[(11R)-6-(2,6-dimethylphenyl)-11-(2-methylpropyl)-2,2,13-trioxo-9-oxa-2λ^6-thia-3,5,12,19-tetraazatricyclo[12.3.1.14,8]nonadeca-1(18),4(19),5,7,14,16-hexaen-12-yl]methyl}-N-methylpyridine-2-carboxamide], for the setting “Table 7”, the “Ent. A Max Activity” value is recorded as “+++ (+++ is >60%)” and the EC50 is less than 1 µM.
Consider `Cc1cccc(C)c1-c1cc2nc(n1)NS(=O)(=O)c1cccc(c1)C(=O)N(Cc1ccc(C(=O)O)nc1)[C@H](CC(C)C)CO2` [Compound 94, 5-{[(11R)-6-(2,6-dimethylphenyl)-11-(2-methylpropyl)-2,2,13-trioxo-9-oxa-2λ^6-thia-3,5,12,19-tetraazatricyclo[12.3.1.14,8]nonadeca-1(18),4(19),5,7,14,16-hexaen-12-yl]methyl}pyridine-2-carboxylic acid], for which, for the setting “Table 7”, the “Ent. A Max Activity” value is recorded as “+++ (+++ is >60%)” and the EC50 fell in the range of 1 to 3 µM.
With `COC(=O)c1ccc(CN2C(=O)c3cccc(c3)S(=O)(=O)Nc3nc(cc(-c4c(C)cccc4C)n3)OC[C@H]2CC(C)C)cn1` [Compound 95, Methyl 5-{[(11R)-6-(2,6-Dimethylphenyl)-11-(2-methylpropyl)-2,2,13-trioxo-9-oxa-2λ^6-thia-3,5,12,19-tetraazatricyclo[12.3.1.14,8]nonadeca-1(18),4(19),5,7,14,16-hexaen-12-yl]methyl}pyridine-2-carboxylate], for the setting “Table 7”, the “Ent. A Max Activity” value is “+++ (+++ is >60%)” and the EC50 is less than 1 µM.
For the compound `Cc1cccc(C)c1-c1cc2nc(n1)NS(=O)(=O)c1cccc(c1)C(=O)N(C)CC(CN(CCC(C)(C)C)CCC(C)(C)C)O2` (centres unmarked) [Compound 98, 10-[[bis(3,3-Dimethylbutyl)amino]methyl]-6-(2,6-dimethylphenyl)-12-methyl-2,2-dioxo-9-oxa-2λ^6-thia-3,5,12,19-tetrazatricyclo[12.3.1.14,8]nonadeca-1(18),4(19),5,7,14,16-hexaen-13-one], under “Table 6”, the “Ent. A Max Activity” value is listed as “+++ (+++ is >60%)” and the EC50 was less than 1 µM.
With `Cc1cccc(C)c1-c1cc2nc(n1)NS(=O)(=O)c1cccc(c1)C(=O)N(C)[C@H](CC(C)C)C(c1ccccn1)O2` (some centres unmarked) [Compound 337], under “Table 7”, the “Ent. A Max Activity” value was “+++ (+++ is >60%)” and the EC50 is less than 1 µM.
Consider `Cc1cccc(C)c1-c1cc2nc(n1)NS(=O)(=O)c1cccc(c1)C(=O)N(CCC(C)C)CC(c1ccc(C(C)(C)C)cc1)O2` (centres unmarked) [Compound 341], for which, under “Table 6”, the “Ent. A Max Activity” value is reported as “++ (++ is 30-60%)” and the EC50 lay within 1 to 3 µM.
Turning to `Cc1cccc(C)c1-c1cc2nc(n1)NS(=O)(=O)c1cccc(c1)C(=O)N(CCC1CCOCC1)CC(c1ccc(C(C)(C)C)cc1)O2` (centres unmarked) [Compound 342], where the note is “Table 6”, the “Ent. A Max Activity” value was “+++ (+++ is >60%)” and the EC50 was less than 1 µM.
For `Cc1ccccc1-c1cc2nc(n1)NS(=O)(=O)c1cccc(c1)C(=O)N(C)[C@H](CC(C)C)[C@H](c1ccc(C(C)(C)C)cn1)O2` [Compound 343], where the note is “Table 6”, the “Ent. A Max Activity” value is recorded as “+++ (+++ is >60%)” and the EC50 was less than 1 µM.
As for `Cc1cccc(C)c1-c1cc2nc(n1)NS(=O)(=O)c1cccc(c1)C(=O)N(CC1CCCN1)[C@H](CC(C)C)CO2` (some centres unmarked) [Compound 344], for the setting “Table 6”, the “Ent. A Max Activity” value is “+++ (+++ is >60%)” and the EC50 is less than 1 µM.
The matching figures for `Cc1cccc(C)c1-c1cc2nc(n1)NS(=O)(=O)c1cccc(c1)C(=O)N(Cc1ccnn1C)[C@H](CC(C)C)CO2` [Compound 345]: “+++ (+++ is >60%)” and less than 1 µM.
In the case of `Cc1cccc(C)c1-c1cc2nc(n1)NS(=O)(=O)c1cccc(c1)C(=O)N(CC1CCCN1C(=O)OC(C)(C)C)[C@H](CC(C)C)CO2` (some centres unmarked) [Compound 346], for the setting “Table 6”, the “Ent. A Max Activity” value is recorded as “+++ (+++ is >60%)” and the EC50 was less than 1 µM.
The matching figures for `COc1cccc(CN2C(=O)c3cccc(c3)S(=O)(=O)Nc3nc(cc(-c4c(C)cccc4C)n3)OC[C@H]2CC(C)C)c1` [Compound 348]: “+++ (+++ is >60%)” and less than 1 µM.
Take `COc1ccccc1CN1C(=O)c2cccc(c2)S(=O)(=O)Nc2nc(cc(-c3c(C)cccc3C)n2)OC[C@H]1CC(C)C` [Compound 349]: for the setting “Table 6”, the “Ent. A Max Activity” value is “+++ (+++ is >60%)” and the EC50 was less than 1 µM.
The matching figures for `Cc1cccc(C)c1-c1cc2nc(n1)NS(=O)(=O)c1cccc(c1)C(=O)N(CC1CCCC1)[C@H](CC(C)C)CO2` [Compound 350]: “+++ (+++ is >60%)” and less than 1 µM.

Values taken from patent US20240150377A1, “MODULATORS OF CYSTIC FIBROSIS TRANSMEMBRANE CONDUCTANCE REGULATOR” (VERTEX PHARMACEUTICALS INCORPORATED, priority 2020, published 2024).
